Test results as given in ChEMBL document CHEMBL4393671, “Design of a Cyclin G Associated Kinase (GAK)/Epidermal Growth Factor Receptor (EGFR) Inhibitor Set to Interrogate the Relationship of EGFR and GAK in Chordoma” (J Med Chem, 2019).
The source made the active and inactive calls. The rule behind the calls is not given here.

Legend:
cells [1] = type: functional, cell-based; conditions: Homo sapiens, 72 h
Description: Antiproliferative activity against human UCH14 cells measured after 72 hrs by alamar blue assay

cells [2] = type: functional, cell-based; conditions: Homo sapiens, UCH2, 72 h
Description: Antiproliferative activity against human UCH2 cells measured after 72 hrs by alamar blue assay

cells [3] = type: ADME, cell-based; conditions: Homo sapiens, WS1, 72 h
Description: Cytotoxicity against human WS1 cells measured after 72 hrs by alamar blue assay

cells [4] = type: functional, cell-based; conditions: Homo sapiens, 72 h; remark: listed apart in the source
Description: Antiproliferative activity against human UCH12 cells measured after 72 hrs by alamar blue assay

[5] = target: T1, Cyclin-G-associated kinase (Homo sapiens) (UniProt O14976); experiment: Inhibition of tracer 5 binding to human N-terminal nano luciferase-fused GAK expressed in HEK293 cells at 5 uM measured after 2 hrs by nanoBRET assay relative to control; type: cell-based
T1 sequence (whole entry): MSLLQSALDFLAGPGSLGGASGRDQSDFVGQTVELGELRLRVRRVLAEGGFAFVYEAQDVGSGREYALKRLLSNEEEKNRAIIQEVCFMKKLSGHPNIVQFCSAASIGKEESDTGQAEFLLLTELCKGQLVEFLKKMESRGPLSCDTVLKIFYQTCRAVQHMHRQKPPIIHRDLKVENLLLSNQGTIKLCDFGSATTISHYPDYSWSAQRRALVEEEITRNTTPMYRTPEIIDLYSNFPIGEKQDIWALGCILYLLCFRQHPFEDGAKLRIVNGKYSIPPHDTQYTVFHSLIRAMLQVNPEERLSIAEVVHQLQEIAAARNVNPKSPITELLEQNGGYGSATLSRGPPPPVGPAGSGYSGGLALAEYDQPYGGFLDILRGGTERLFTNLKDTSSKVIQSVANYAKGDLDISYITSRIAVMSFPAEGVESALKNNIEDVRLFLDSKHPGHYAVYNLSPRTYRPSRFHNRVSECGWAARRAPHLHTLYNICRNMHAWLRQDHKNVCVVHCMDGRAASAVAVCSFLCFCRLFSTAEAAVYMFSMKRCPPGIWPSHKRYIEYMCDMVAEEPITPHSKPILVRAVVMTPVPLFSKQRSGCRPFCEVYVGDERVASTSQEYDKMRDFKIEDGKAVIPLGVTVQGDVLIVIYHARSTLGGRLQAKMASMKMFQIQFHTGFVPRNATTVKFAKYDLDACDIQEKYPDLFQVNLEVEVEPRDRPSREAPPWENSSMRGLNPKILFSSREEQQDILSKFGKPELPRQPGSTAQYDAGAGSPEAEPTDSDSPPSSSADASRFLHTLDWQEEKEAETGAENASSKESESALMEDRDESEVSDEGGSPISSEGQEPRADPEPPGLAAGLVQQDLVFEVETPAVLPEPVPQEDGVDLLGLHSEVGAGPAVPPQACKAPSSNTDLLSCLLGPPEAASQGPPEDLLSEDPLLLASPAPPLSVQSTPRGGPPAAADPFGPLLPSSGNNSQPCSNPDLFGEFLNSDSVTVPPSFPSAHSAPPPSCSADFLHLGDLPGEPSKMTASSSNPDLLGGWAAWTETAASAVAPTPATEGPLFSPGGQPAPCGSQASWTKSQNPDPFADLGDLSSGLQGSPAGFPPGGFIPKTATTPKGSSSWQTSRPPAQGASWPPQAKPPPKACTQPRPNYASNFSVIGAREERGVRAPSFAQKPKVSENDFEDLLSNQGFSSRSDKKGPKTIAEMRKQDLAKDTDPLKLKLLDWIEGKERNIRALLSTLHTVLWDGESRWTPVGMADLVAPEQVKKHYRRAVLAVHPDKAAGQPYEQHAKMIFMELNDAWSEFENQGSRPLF

[6] = target: Aurora kinase B (Homo sapiens) (UniProt Q96GD4); experiment: Binding affinity to AURKB in human SUM159 cell lysates by multiplexed inhibitor bead profiling-based LC-MS/MS analysis; type: subcellular; conditions: Lysate
cells [7] = type: functional, cell-based; conditions: Homo sapiens, UCH1, 72 h
Description: Antiproliferative activity against human UCH1 cells measured after 72 hrs by alamar blue assay

[8] = target: T2, Epidermal growth factor receptor (Homo sapiens, UniProt P00533); type: cell-based;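 as to IC50: human A431 cells pretreated 90 min, then EGF stimulated, sandwich ELISA measured decrease in EGF-induced receptor autophosphorylation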;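 as to Kd: KINOMEscan competition binding with recombinant partial wild-type human EGFR (residues R669–V1011) produced in bacteria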
Description: Inhibition of EGFR in human A431 cells assessed as reduction in EGF-stimulated EGFR autophosphorylation preincuabted for 90 mins followed by EGF-stimulation by sandwich-ELISA

cells [9] = type: functional, cell-based; conditions: Homo sapiens, 72 h; remark: listed apart in the source
Description: Antiproliferative activity against human UMCHOR1 cells measured after 72 hrs by alamar blue assay

[10] = target: T3, Cyclin-G-associated kinase (Homo sapiens, UniProt O14976); experiment: Binding affinity to wild-type human partial length GAK (G13 to Y338 residues) expressed in bacterial expression system by Kinomescan method
T3 sequence (O14976 whole entry): T1 sequence (whole entry)

cells [11] = type: functional, cell-based; conditions: Homo sapiens, 72 h; remark: listed apart in the source
Description: Antiproliferative activity against human UCH7 cells measured after 72 hrs by alamar blue assay

[12] = target: T4, Dual specificity mitogen-activated protein kinase kinase 5 (Homo sapiens) (UniProt Q13163); experiment: Binding affinity to MAP2K5 in human SUM159 cell lysates by multiplexed inhibitor bead profiling-based LC-MS/MS analysis; type: subcellular; conditions: Lysate
T4 sequence (whole entry): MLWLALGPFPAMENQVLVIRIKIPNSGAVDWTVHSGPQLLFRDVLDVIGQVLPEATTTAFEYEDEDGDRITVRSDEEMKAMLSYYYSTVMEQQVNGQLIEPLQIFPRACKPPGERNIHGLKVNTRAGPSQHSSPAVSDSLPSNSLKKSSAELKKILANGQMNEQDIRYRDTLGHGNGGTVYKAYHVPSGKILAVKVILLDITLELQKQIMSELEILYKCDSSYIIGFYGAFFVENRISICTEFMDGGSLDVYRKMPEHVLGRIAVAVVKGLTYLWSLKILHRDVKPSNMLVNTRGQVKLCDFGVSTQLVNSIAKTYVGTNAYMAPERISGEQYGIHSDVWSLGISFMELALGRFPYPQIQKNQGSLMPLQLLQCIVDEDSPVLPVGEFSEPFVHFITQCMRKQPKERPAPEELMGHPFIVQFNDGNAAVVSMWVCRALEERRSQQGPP

[13] = target: Nucleoside diphosphate kinase B (Homo sapiens) (UniProt P22392); experiment: Binding affinity to NME2 in human SUM159 cell lysates by multiplexed inhibitor bead profiling-based LC-MS/MS analysis; type: subcellular; conditions: Lysate
[14] = target: T2, Epidermal growth factor receptor
Description: Binding affinity to wild-type human partial length EGFR (R669 to V1011 residues) expressed in bacterial expression system by Kinomescan method

cells [15] = type: functional, cell-based; conditions: Homo sapiens, 72 h; remark: listed apart in the source
Description: Antiproliferative activity against human CH22 cells measured after 72 hrs by alamar blue assay

[16] = target: Tyrosine-protein kinase ABL1 (Homo sapiens, UniProt P00519); experiment: Binding affinity to wild-type human ABL1 (S229 to K512 residues) expressed in mammalian expression system by Kinomescan method
[17] = target: Serine/threonine-protein kinase SIK2 (Homo sapiens, UniProt Q9H0K1); experiment: Binding affinity to wild-type human full length SIK2 (M1 to N926 residues) expressed in bacterial expression system by Kinomescan method
Homo sapiens = organism: Homo sapiens; experiment: Selectivity ratio of Kd for wild-type human partial length EGFR (R669 to V1011 residues) expressed in bacterial expression system to kd for wild-type human partial length GAK (G13 to Y338 residues) expressed in bacterial expression system
[18] = target: T5, Serine/threonine-protein kinase D2 (Homo sapiens, UniProt Q9BZL6); experiment: Binding affinity to wild-type human partial length PRKD2 (A519 to E838 residues) expressed in bacterial expression system by Kinomescan method
T5 sequence (Q9BZL6 whole entry): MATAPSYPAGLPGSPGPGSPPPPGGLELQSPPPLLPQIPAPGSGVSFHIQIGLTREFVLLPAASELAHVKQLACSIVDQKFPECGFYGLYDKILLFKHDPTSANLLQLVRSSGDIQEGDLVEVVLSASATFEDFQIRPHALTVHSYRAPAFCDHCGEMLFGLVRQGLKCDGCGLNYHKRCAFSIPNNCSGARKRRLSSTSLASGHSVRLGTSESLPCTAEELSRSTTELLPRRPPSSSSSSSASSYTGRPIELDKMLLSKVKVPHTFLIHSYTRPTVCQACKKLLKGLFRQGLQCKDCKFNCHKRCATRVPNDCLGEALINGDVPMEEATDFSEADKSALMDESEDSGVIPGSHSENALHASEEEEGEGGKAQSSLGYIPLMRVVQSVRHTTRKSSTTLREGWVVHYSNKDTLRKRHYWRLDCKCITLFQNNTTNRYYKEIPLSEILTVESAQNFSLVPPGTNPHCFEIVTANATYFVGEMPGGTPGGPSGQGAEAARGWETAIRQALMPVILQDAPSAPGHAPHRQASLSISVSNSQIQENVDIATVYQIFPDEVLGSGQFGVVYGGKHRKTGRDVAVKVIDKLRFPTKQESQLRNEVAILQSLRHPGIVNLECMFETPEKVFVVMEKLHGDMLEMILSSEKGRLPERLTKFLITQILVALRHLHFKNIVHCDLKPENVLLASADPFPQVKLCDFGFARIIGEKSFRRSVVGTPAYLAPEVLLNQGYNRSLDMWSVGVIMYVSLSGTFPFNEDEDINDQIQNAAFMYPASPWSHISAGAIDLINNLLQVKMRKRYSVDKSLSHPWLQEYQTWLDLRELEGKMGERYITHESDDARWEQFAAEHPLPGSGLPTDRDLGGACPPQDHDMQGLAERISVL

Activated CDC42 kinase 1 = Activated CDC42 kinase 1 (Homo sapiens, UniProt Q07912); experiment: Binding affinity to wild-type human partial length TNK2 (S159 to D474 residues) expressed in bacterial expression system by Kinomescan method
[19] = target: Proto-oncogene tyrosine-protein kinase receptor Ret (Homo sapiens, UniProt P07949); experiment: Binding affinity to wild-type human partial length RET (E713 to D1014 residues) expressed in bacterial expression system by Kinomescan method
[20] = target: Tyrosine-protein kinase ABL2 (Homo sapiens, UniProt P42684); experiment: Binding affinity to wild-type human ABL2 (A248 to G542 residues) expressed in bacterial expression system by Kinomescan method
[21] = target: T1, Cyclin-G-associated kinase (Homo sapiens); experiment: Binding affinity to wild-type human partial length GAK (G13 to Y338 residues) expressed in bacterial expression system at 1 uM by Kinomescan method relative to control

T2 sequence (P00533 whole entry, the tested form may be a part): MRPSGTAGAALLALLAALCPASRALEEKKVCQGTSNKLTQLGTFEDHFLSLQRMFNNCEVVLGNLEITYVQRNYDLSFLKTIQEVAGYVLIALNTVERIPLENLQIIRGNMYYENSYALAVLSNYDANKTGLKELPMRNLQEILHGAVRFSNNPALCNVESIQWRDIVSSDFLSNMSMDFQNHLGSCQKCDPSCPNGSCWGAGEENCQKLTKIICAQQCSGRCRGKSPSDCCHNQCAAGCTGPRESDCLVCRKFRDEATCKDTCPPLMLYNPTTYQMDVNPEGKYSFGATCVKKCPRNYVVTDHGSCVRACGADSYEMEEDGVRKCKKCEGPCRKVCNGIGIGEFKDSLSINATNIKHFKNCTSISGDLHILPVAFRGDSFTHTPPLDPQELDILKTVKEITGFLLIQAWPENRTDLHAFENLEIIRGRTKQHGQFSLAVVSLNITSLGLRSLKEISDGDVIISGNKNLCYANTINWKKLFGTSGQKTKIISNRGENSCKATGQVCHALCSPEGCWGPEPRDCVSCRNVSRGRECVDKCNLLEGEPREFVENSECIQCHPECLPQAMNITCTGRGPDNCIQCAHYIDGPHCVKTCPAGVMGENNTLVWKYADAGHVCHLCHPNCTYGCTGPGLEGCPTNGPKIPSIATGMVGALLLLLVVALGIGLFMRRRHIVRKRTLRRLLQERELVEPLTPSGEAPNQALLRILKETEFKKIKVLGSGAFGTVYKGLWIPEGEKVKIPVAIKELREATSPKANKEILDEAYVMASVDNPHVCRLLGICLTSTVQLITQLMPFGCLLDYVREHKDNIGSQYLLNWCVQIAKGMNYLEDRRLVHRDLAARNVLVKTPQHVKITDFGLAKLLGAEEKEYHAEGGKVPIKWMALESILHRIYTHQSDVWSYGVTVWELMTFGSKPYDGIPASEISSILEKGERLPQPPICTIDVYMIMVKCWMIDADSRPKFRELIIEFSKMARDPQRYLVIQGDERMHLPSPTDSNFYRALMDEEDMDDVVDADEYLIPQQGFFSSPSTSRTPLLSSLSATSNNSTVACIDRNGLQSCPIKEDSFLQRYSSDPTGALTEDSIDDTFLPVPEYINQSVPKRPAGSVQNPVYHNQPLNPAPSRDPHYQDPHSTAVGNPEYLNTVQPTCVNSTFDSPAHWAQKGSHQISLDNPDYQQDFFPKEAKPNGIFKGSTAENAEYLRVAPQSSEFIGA
Sequence of Nucleoside diphosphate kinase B (Homo sapiens) (P22392 whole entry): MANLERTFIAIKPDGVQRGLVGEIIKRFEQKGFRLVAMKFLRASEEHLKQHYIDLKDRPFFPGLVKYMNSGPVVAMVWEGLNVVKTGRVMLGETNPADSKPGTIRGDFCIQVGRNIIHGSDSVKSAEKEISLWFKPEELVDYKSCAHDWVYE
Sequence of Aurora kinase B (Homo sapiens) (Q96GD4 whole entry): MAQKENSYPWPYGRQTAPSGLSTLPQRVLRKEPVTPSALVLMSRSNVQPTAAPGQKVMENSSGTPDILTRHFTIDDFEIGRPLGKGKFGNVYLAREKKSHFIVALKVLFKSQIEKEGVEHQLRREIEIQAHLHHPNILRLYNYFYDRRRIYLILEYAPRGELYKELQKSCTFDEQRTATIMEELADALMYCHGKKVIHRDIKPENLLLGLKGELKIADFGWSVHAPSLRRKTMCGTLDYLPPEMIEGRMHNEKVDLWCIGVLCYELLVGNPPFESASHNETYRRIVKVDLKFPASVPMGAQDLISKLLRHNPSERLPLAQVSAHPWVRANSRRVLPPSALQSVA
Sequence of Tyrosine-protein kinase ABL2 (P42684 whole entry, the tested form may be a part): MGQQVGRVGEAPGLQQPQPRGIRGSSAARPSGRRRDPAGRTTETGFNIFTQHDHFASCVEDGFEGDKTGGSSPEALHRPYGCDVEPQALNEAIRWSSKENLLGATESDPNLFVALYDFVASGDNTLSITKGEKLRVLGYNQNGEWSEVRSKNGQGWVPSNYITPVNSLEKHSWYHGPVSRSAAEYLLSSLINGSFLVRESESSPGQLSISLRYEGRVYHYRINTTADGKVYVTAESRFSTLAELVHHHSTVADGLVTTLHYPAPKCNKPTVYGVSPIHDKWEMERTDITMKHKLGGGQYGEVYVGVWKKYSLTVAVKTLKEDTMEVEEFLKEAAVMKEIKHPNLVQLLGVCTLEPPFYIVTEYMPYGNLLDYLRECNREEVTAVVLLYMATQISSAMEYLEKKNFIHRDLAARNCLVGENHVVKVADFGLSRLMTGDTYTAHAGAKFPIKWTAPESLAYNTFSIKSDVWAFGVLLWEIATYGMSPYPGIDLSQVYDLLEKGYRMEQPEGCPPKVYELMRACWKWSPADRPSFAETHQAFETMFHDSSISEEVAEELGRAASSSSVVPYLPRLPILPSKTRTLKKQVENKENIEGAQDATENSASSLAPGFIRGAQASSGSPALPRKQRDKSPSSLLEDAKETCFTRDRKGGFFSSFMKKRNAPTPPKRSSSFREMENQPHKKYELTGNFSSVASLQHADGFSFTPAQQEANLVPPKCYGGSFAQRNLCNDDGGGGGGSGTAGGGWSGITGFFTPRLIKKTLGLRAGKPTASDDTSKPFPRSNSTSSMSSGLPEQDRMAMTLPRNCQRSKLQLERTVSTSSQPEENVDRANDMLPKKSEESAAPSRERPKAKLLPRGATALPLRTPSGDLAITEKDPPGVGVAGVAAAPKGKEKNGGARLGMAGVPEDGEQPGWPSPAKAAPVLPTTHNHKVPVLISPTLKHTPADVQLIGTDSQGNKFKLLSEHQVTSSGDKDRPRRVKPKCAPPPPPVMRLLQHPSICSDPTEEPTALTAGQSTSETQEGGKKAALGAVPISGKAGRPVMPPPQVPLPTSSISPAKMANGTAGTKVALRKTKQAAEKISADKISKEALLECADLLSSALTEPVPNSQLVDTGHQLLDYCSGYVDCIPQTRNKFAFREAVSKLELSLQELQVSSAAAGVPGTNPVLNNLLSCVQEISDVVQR
Sequence of Activated CDC42 kinase 1 (Q07912 whole entry, the tested form may be a part): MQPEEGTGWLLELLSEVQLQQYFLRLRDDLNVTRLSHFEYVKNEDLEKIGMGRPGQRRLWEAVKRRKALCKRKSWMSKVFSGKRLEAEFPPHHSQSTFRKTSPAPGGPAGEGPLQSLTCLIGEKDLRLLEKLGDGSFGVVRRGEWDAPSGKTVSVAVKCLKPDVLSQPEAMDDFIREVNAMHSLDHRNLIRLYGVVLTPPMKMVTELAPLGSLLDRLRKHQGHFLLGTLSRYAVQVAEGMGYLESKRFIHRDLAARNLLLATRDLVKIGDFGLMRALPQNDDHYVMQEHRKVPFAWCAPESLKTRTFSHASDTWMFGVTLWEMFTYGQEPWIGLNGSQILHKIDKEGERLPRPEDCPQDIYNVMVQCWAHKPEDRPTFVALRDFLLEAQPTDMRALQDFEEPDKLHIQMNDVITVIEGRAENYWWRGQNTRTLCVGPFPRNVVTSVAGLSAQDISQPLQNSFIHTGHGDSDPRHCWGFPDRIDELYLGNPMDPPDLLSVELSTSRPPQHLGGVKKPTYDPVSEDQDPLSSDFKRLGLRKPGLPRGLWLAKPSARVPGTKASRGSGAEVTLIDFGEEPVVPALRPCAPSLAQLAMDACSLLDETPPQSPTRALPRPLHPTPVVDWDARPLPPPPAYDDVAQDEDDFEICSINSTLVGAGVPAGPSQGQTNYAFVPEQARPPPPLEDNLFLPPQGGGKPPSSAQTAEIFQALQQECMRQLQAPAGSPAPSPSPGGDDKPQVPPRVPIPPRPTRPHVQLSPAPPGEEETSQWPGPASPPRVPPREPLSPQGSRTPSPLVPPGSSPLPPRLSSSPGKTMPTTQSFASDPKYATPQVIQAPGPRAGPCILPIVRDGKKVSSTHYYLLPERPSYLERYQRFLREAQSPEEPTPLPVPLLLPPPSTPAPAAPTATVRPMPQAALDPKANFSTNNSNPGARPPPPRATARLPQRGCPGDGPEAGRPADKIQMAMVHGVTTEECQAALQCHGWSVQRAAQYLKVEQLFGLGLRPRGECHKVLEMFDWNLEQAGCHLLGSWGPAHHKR
Sequence of Tyrosine-protein kinase ABL1 (P00519 whole entry, the tested form may be a part): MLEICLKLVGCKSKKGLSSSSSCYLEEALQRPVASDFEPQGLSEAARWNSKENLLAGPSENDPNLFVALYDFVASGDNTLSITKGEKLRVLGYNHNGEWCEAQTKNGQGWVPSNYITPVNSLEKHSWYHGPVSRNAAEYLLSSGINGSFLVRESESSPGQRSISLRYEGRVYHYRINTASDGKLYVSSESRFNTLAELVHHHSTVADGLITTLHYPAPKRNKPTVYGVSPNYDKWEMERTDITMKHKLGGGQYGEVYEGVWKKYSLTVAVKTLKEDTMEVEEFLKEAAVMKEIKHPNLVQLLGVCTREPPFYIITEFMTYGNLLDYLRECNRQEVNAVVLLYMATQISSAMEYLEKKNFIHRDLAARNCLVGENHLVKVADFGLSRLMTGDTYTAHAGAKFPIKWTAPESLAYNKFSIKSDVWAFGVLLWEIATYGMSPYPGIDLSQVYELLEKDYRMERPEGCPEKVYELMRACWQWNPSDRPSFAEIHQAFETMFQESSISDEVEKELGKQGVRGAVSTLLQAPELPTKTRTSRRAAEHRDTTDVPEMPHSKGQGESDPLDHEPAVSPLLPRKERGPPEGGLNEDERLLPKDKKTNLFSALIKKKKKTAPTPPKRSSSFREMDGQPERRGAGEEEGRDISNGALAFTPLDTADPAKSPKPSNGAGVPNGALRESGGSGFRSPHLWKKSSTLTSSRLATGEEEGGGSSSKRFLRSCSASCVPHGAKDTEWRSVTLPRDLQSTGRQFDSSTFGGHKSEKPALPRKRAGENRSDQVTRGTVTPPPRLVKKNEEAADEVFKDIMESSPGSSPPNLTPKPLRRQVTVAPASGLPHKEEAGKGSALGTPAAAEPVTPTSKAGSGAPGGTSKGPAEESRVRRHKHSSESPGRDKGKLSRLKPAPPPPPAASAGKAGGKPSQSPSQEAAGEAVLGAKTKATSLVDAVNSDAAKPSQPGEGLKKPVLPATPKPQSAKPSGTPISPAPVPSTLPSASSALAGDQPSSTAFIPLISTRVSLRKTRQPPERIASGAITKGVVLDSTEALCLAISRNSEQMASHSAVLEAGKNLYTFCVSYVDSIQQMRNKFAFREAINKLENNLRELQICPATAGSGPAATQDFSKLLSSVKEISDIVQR

SMILES	IC50 (cells [1]) [µM]	IC50 (cells [2]) [µM]	IC50 (cells [3]) [µM]	IC50 (cells [4]) [µM]	inhibition [5] [%]	IC50 (cells [7]) [µM]	IC50 (cells [9]) [µM]	IC50 (cells [11]) [µM]	Kd [14] [µM]	IC50 (cells [15]) [µM]	also measured
COc1cc2nccc(Nc3ccc(OCc4cccc(F)c4)c(Cl)c3)c2cc1OC	7	2.9	8.6	5.5	22	2.6	1.5	2.7	0.032	1	Activity [6]: Active; IC50 [8]: 1.7 µM; Kd [10]: > 10 µM; Activity [12]: Active; Activity [13]: Active
COc1cccc(Nc2ncnn3ccc(CN4CC[C@@H](N)[C@H](O)C4)c23)c1 [BMS-690514]		> 50				0.53			0.22		Kd [16]: < 0.225 µM; Kd [17]: < 0.225 µM; Selectivity ratio (Homo sapiens): > 700; Kd [18]: < 0.225 µM; Kd (Activated CDC42 kinase 1): < 0.225 µM; Kd [19]: < 0.225 µM; Kd [20]: < 0.225 µM
CS(=O)(=O)CCNCc1ccc(-c2ccc3ncnc(Nc4ccc(OCc5cccc(F)c5)c(Cl)c4)c3c2)o1 [LAPATINIB]	> 50	> 50	13	33	0	3.2	25	26		25	Activity [21]: < 50%
